Assay results as given in patent publication US7906106B2, “In vivo cell trafficking” (General Electric Company, priority 2007, dated 2011).

Test system: granuloma-derived nucleated cells
Assay: FACS analysis to determine cell viability (7-AAD) after staining with Cy7.5 NHS-ester
Type: cell-based, mouse
Details: granuloma-derived nucleated cells stained with 1 μg dye in 10 ml PBS, on ice 20 minutes
Procedure: Cell Staining. 1 μg of Cy 7.5-NHS ester was mixed in 10 ml of PBS. The cells are resuspended in the buffer and left on ice for 20 minutes. Cells were washed three times in PBS and the cell pellet is placed under Optix scanner to confirm cell staining. The cells were resuspended in PBS and 100 μl of the cell suspension (containing 0.5×10^6 cells/100 μl) was injected via the tail vein. The stained cell pellet generated signal that was detected by the scanner.
FACS Analysis to Determine Cell Viability. Stained cells were washed three times in PBS and resuspended in 100 μl PBS. The cell suspension was incubated with 20 μl of 7-AAD for 20 minutes at room temperature. The cells are washed once in PBS and resuspended in 500 μl of PBS, then analyzed in FACS for viability.
FACS Analysis for Cellular Markers. The cells were stained with cell markers for leukocytes (CD45) and monocyte/macrophage (CD 11 b). Both CD11b and CD45 antibodies were purchased from Miltenyi Biotec and stained following vendors instructions. Thus, 10 μl of CD11b PE antibody and 10 μl CD45 FITC were incubated with 1×10^6 cells for 20 minutes. The cells were washed in PBS, resuspend in 0.5 mL PBS, and run on Flow Cytometer (Beckman Coulter FC500 MPL). The cells were viable after staining with Cye7.5 NHS-ester and 72% of cell population in the suspension were positive for CD45 and CD11b.

Substance: Cy7.5-NHS ester [Cye7.5 NHS-ester]
- cell viability after staining: viable
